Reference: US20090032427A1, “Receptacles and Kits, Such as for Dry Powder Packaging” (Nektar Therapeutics, priority 2005, published 2009)

How the values were obtained:
[1] = cited from earlier work
[2] = test system: fungus; assay: minimum inhibitory concentration (MIC) of amphotericin B; format: cell-based; settings: midrange of the MIC range, 300′ of FIG. 25
Method: In one version, an aerosolizeable pharmaceutical composition comprising amphotericin B is administered to the lungs and/or nasal cavity of a patient in a manner that results in an amphotericin B concentration greater than a minimum inhibitory concentration (MIC) of the fungus. The MIC is defined as the lowest concentration of amphotericin B that inhibits fungal growth. The MIC may be expressed as a particular concentration value or as a range of concentrations. A method according to one or more embodiments of the present invention administers a sufficient amount of the pharmaceutical composition to achieve a target lung concentration of amphotericin B that falls within the range of MIC values or is above a particular MIC value. In another version, the target lung concentration of amphotericin B exceeds the MIC range. In another version, the target lung concentration of amphotericin B exceeds the lowest value in an MIC range. […] As used herein, unless otherwise specified, the MIC value shall be taken to be the particular value when a particular MIC value is determined and shall be taken to be a midrange value when a range of MIC values is determined. […]
The MIC value for amphotericin B in this version has been determined to range from about 0.5 μg/g to about 4 μg/g, as shown by block 300. […]

[3] = amphotericin B lung-residence half-life (bronchioalveolar lavage / lung tissue homogenization); format: in vivo; settings: pulmonary administration

Row | Compound | solubility in water [1] | midrange MIC value [2] | amphotericin B lung-residence half-life in lung epithelial fluid ([3]; lung epithelial fluid, measured by bronchioalveolar lavage) | amphotericin B lung-residence half-life in lung tissue ([3]; lung tissue, measured by lung tissue homogenization)
1 | CCCCCCCCCCCCCCCC(=O)OC[C@H](COP(=O)([O-])OCC[N+](C)(C)C)OC(=O)CCCCCCCCCCCCCCC [DPPC, dipalmitoylphosphatidylcholine] | about 10^−10 mol/L | – | – | –
2 | C[C@@H]1[C@H](O)[C@@H](C)/C=C/C=C/C=C/C=C/C=C/C=C/C=C/[C@H](O[C@@H]2O[C@H](C)[C@@H](O)[C@H](N)[C@@H]2O)C[C@@H]2O[C@](O)(C[C@@H](O)C[C@@H](O)[C@H](O)CC[C@@H](O)C[C@@H](O)CC(=O)O[C@H]1C)C[C@H](O)[C@H]2C(=O)O [amphotericin B] | – | about 2.25 μg/g | at least 10 hours | at least 1 week
